From US20260284091A1, “IMIDAZOLE LOADED GLYCYRRHIZIC ACID HYDROGELS” (KATHOLIEKE UNIVERSITEIT LEUVEN, priority 2023, published 2026)

How the values were obtained:
Assay in all cases: Growth inhibition and biocidal activity evaluation of glycyrrhizic acid hydrogels
MRSA = format: cell-based, Methicillin-resistant Staphylococcus aureus; conditions: bactericidal = 3 LOG reduction compared to the inoculum
Excerpt: Escherichia coli UTI89, Pseudomonas aeruginosa LMG9009, Staphylococcus aureus ATCC6538, Klebsiella pneumoniae ATCC13883, Klebsiella aerogenes ATCC13048, Acinetobacter baumannii RD5SR3. Enterococcus faecalis LMG8148, Streptococcus pyogenes LMG 14237 and clinical isolates of a Staphylococcus epidermidis and a methicillin resistant S. aureus (MRSA), isolated from osteomyelitis patients were used. Prior to the experiments, all strains, except S. pyogenes were inoculated in Lysogeny broth (LB) and incubated overnight on 37° C. (200 rpm). Overnight cultures of S. pyogenes were grown micro-aerophilic in Brain-Heart infusion broth (BHI). Thereafter, the bacteria were normalized to roughly 5*10^5 CFU mL^−1. Lysogeny broth (LB; 10 g L^−1 NaCl, 10 g L^−1 Tryptone, 5 g L^−1 Yeast Extract) was used to create overnight cultures (ONC). […]
(i) Hydrogel C with pH=3, (ii) Hydrogel B with pH=3.8 and (iii) Hydrogel A with pH=4.2. pH was measured at 70° C. and varied using HCl or NaOH to acidify or alkalify the formulation to the desired pH-value. […]
To avoid evaporation, the plates were sealed using a membrane (Greiner Bio-one NV). After 24 hours of incubation (37° C., 200 rpm), the OD595 was measured and relative OD595 was calculated by dividing the OD595 by the average OD595 of the growth control (=growth of cells in MHB without glycyrrhizic acid). […]

[1] = system: Pseudomonas aeruginosa LMG9009; format: cell-based; conditions: P. aeruginosa; bactericidal = 3 LOG reduction compared to the inoculum
Excerpt: (§1) Escherichia coli UTI89, Pseudomonas aeruginosa LMG9009, Staphylococcus aureus ATCC6538, Klebsiella pneumoniae ATCC13883, Klebsiella aerogenes ATCC13048, Acinetobacter baumannii RD5SR3. Enterococcus faecalis LMG8148, Streptococcus pyogenes LMG 14237 and clinical isolates of a Staphylococcus epidermidis and a methicillin resistant S. aureus (MRSA), isolated from osteomyelitis patients were used. Prior to the experiments, all strains, except S. pyogenes were inoculated in Lysogeny broth (LB) and incubated overnight on 37° C. (200 rpm). Overnight cultures of S. pyogenes were grown micro-aerophilic in Brain-Heart infusion broth (BHI). Thereafter, the bacteria were normalized to roughly 5*10^5 CFU mL^−1. Lysogeny broth (LB; 10 g L^−1 NaCl, 10 g L^−1 Tryptone, 5 g L^−1 Yeast Extract) was used to create overnight cultures (ONC). Mueller Hinton Broth (MHB; 21 g L^−1 MHB) was used for the minimal inhibitory concentration (MIC) assays for all strain except S. pyogenes. For this strain, BHI was used. If LB agar, BHI agar or MHB agar was needed, 15 g L^−1 of bacteriological agar was added. MHB or BHI batches with varying pH were made by adding HCl or NaOH to acidify or alkalify the medium to the desired pH-value, respectively. Three different formulations of the glycyrrhizic acid hydrogels were made in dH2O:
(§2) (i) Hydrogel C with pH=3, (ii) Hydrogel B with pH=3.8 and (iii) Hydrogel A with pH=4.2. pH was measured at 70° C. and varied using HCl or NaOH to acidify or alkalify the formulation to the desired pH-value. Moreover, different concentration batches (mass by volume) were used for the hydrogels: 2.5%, 5%, 7,5%, 10%, 15% and 20%. Glycyrrhizic acid in solution—not a hydrogel—was prepared at pH 7,4.
(§3) To determine the growth inhibiting activity of glycyrrhizic acid in solution, 100 μL of different 1:2 dilutions of a 100 mg/mL stock solution of glycyrrhizic acid in MHB were added to the wells of a 96 well microtiter plate, after which 100 μL of a 5*10^5 CFU mL^−1 bacteria suspension in MHB was added to each well.
(§4) To determine the growth inhibiting activity of the glycyrrhizic acid hydrogels, the hydrogel was liquefied by heating to 70° C. When liquid, varying volumes of the liquid hydrogel (80 μL to 160 μL) were pipetted into a 96 well microtiter plate. After the hydrogel solidified, 120 μL of a 5*10^5 CFU mL^−1 bacteria suspension in MHB was added on top of the hydrogel.
(§5) To avoid evaporation, the plates were sealed using a membrane (Greiner Bio-one NV). After 24 hours of incubation (37° C., 200 rpm), the OD595 was measured and relative OD595 was calculated by dividing the OD595 by the average OD595 of the growth control (=growth of cells in MHB without glycyrrhizic acid).
(§6) To determine the biocidal activity of glycyrrhizic acid in solution and in hydrogel, at the end of the growth inhibition assay (see above), after incubation, 100 μL of the medium on top of the hydrogel was diluted 10 times in Phosphate saline buffer (PBS; 1.24 g L^−1 K2HPO4. 0.39 g L^−1 KH2PO4. 8.8 g L^−1 NaCl) and plated out on MHB agar plates by spreading 100 μL of the dilution. After incubating overnight at 37° C., colonies were counted and the colony forming units were determined.

[2] = system: Klebsiella pneumoniae ATCC13883; format: cell-based; conditions: K. pneumoniae; bactericidal = 3 LOG reduction compared to the inoculum
Excerpt: as §1, §2, §3, §4, §5, §6

Escherichia coli UTI89 = format: cell-based; conditions: E. coli; bactericidal = 3 LOG reduction compared to the inoculum
Excerpt: as §1, §2, §3, §4, §5, §6

[3] = system: Enterococcus faecalis LMG8148; format: cell-based; conditions: bactericidal = 3 LOG reduction compared to the inoculum
Excerpt: as §1, §2, §3, §4, §5, §6

[4] = system: Staphylococcus epidermidis; format: cell-based; conditions: S. epidermidis; bactericidal = 3 LOG reduction compared to the inoculum
Excerpt: as §1, §2, §3, §4, §5, §6

[5] = system: Streptococcus pyogenes LMG 14237; format: cell-based
Excerpt: as §1, §2, §3, §4, §5, §6

[6] = system: Acinetobacter baumannii RD5SR3; format: cell-based; conditions: A. baumannii; bactericidal = 3 LOG reduction compared to the inoculum
Excerpt: as §1, §2, §3, §4, §5, §6

[7] = system: Klebsiella aerogenes ATCC13048; format: cell-based; conditions: K. aerogenes; bactericidal = 3 LOG reduction compared to the inoculum
Excerpt: as §1, §2, §3, §4, §5, §6

CC1(C)[C@@H](O[C@H]2O[C@H](C(=O)O)[C@@H](O)[C@H](O)[C@H]2O[C@@H]2O[C@H](C(=O)O)[C@@H](O)[C@H](O)[C@H]2O)CC[C@]2(C)[C@H]3C(=O)C=C4[C@@H]5C[C@@](C)(C(=O)O)CC[C@]5(C)CC[C@@]4(C)[C@]3(C)CC[C@@H]12 [GLY in solution, glycyrrhizic acid]
antibacterial effect (no effect, bacteriostatic, bactericidal) (MRSA): No effect | antibacterial effect (no effect, bacteriostatic, bactericidal) [1]: No effect | antibacterial effect (no effect, bacteriostatic, bactericidal) [2]: No effect | antibacterial effect (no effect, bacteriostatic, bactericidal) (Escherichia coli UTI89): No effect | antibacterial effect (no effect, bacteriostatic, bactericidal) [3]: No effect | antibacterial effect (no effect, bacteriostatic, bactericidal) [4]: No effect | growth inhibition ([5]; 50 mg/mL in solution, pH 7.0, only one of nine pathogens tested that was inhibited): inhibited | antibacterial effect (no effect, bacteriostatic, bactericidal) ([5]; Streptococcus, bactericidal = 3 LOG reduction compared to the inoculum): Bacteriostatic | antibacterial effect (no effect, bacteriostatic, bactericidal) [6]: No effect | antibacterial effect (no effect, bacteriostatic, bactericidal) [7]: No effect
